Experimental data as given in article PMC9225722, “Synthesis and biological evaluation of thieno[3,2-c]pyrazol-3-amine derivatives as potent glycogen synthase kinase 3β inhibitors for Alzheimer’s disease” (Journal of Enzyme Inhibition and Medicinal Chemistry, 2022).
“Also recorded” adds a separate entry of the source.

Test system: SH-SY5Y cells
Experiment: Cytotoxicity on SH-SY5Y cells (MTT assay)
Assay type: cell-based, human
Procedure: To evaluate the neuronal cell cytotoxicity of compound 16b, we examined its cytotoxic profile on human neuroblastoma SH-SY5Y cells after incubation for 24 h by the MTT (3-(4,5-dimethylthiazol-2-yl)-2,5-diphenyltetrazolium bromide) assay.
Figure 5. Cell viability of SH-SY5Y cells exposed to compound 16b at different concentrations (range from 3.125 − 50 μM) for 24 h. Vehicle treater cells were used as control. The results were expressed as the percentage of viable cells observed after treatment with compound 16b respect to vehicle-treated cells (100%) and shown as the mean ± SD from at least three separate experiments.
SH-SY5Y cells were cultured in DMEM/F12 (Dulbecco’s modified Eagle medium and Ham’s F-12, 1:1) with 10% FBS (fetal bovine serum), 1% penicillin and 1% streptomycin under 5% CO2 atmosphere at 37 °C. SH-SY5Y cells (1 × 10^5) were seeded in 96-well plates and incubated for 24 h. Different concentrations of compound 16b were added into each well and incubated for another 24 h. The survival of cells was determined by MTT assay and the absorbance of each well were measured using a SpectraMax M5 multimode plate reader at 570 nm. Results were expressed as percentage of control and statistical analysis was performed using GraphPad Prism 5.0 (GraphPad Software Inc., San Diego, CA, USA).

## CC(C)C(=O)Nc1n[nH]c2cc(-c3cccnc3)sc12 [Compound 16b, N-(5-(pyridin-3-yl)-1H-thieno[3,2-c]pyrazol-3-yl)isobutyramide]
50 μM versus GSK-3β IC50
  non-cytotoxic concentration as fold of the IC50 value of GSK-3β inhibitory activity: > 16000 fold
Concentration up to 50 μM (3.125-50 μM), 24 h, MTT
  cytotoxicity on SH-SY5Y cells: no toxicity; also recorded: no significant cytotoxicity
